From the supplement of paper PMC10307832

Experiments:
Assay in all cases: relative viability (nuclei count vs DMSO), 5 days (fraction); higher = more cells survive
[1] = compound: C1COCCN1C2=NC(=NC3=C2OC4=C3C=CC=N4)C5=CC(=CC=C5)NC(=O)C6=CN=C(C=C6)N + CS(=O)(=O)N1CCN(Cc2cc3nc(-c4cccc5[nH]ncc45)nc(N4CCOCC4)c3s2)CC1 [Pictilisib] (partner 1 µM)
Procedure, shortened: (§1)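 Five library-drug doses in √10 steps were combined with a fixed anchor-drug dose, or a single drug was given alone, by pin tool to lung cancer cell lines in 1536-well plates the day after seeding. Nuclei were stained and counted after 5 days. Relative viability is the nuclei count in treated wells over that in vehicle wells, taken as the median of duplicate plates.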

Entinostat + Pictilisib = compound: Nc1ccccc1NC(=O)c1ccc(CNC(=O)OCc2cccnc2)cc1 [Entinostat] + CS(=O)(=O)N1CCN(Cc2cc3nc(-c4cccc5[nH]ncc45)nc(N4CCOCC4)c3s2)CC1 [Pictilisib] (partner 1 µM)
Procedure, shortened: as §1

[2] = compound: C1COCCN1C2=NC(=NC3=C2OC4=C3C=CC=N4)C5=CC(=CC=C5)NC(=O)C6=CN=C(C=C6)N + COc1cc2c(Oc3ccc(NC(=O)C4(C(=O)Nc5ccc(F)cc5)CC4)cc3F)ccnc2cc1OCCCN1CCOCC1 [Foretinib] (partner 0.25 µM)
Procedure, shortened: as §1

[3] = compound: C1COCCN1C2=NC(=NC3=C2OC4=C3C=CC=N4)C5=CC(=CC=C5)NC(=O)C6=CN=C(C=C6)N + CS(=O)(=O)CCNCc1ccc(-c2ccc3ncnc(Nc4ccc(OCc5cccc(F)c5)c(Cl)c4)c3c2)o1 [Lapatinib] (partner 2 µM)
Procedure, shortened: as §1

Q: UMC-11 was tested. Which relative viability ([1]; first compound 0.02 µM) did it give?
A: The relative viability was 0.837.

Q: What about the relative viability ([1]; first compound 0.06325 µM) of the same cell line?
A: The relative viability was 0.875.

Q: And the relative viability ([1]; first compound 0.2 µM)?
A: Its relative viability is 0.791.

Q: What about the relative viability ([1]; first compound 0.6325 µM) of the same cell line?
A: The relative viability was 0.776.

Q: And the relative viability ([1]; first compound 2 µM)?
A: Its relative viability is 0.598.

Q: And the relative viability (Entinostat + Pictilisib; first compound 0.02 µM)?
A: Its relative viability is 0.865.

Q: What about the relative viability (Entinostat + Pictilisib; first compound 0.06325 µM) of the same cell line?
A: Its relative viability is 0.848.

Q: And the relative viability (Entinostat + Pictilisib; first compound 0.2 µM)?
A: Its relative viability is 0.836.

Q: What about the relative viability (Entinostat + Pictilisib; first compound 0.6325 µM) of the same cell line?
A: Its relative viability is 0.144.

Q: What about the relative viability (Entinostat + Pictilisib; first compound 2 µM) of the same cell line?
A: The relative viability was 0.136.

Q: And the relative viability ([2]; first compound 0.02 µM)?
A: The relative viability was 1.05.

Q: And the relative viability ([2]; first compound 0.06325 µM)?
A: Its relative viability is 1.08.

Q: What about the relative viability ([2]; first compound 0.2 µM) of the same cell line?
A: The relative viability was 1.21.

Q: And the relative viability ([2]; first compound 0.6325 µM)?
A: The relative viability was 1.19.

Q: And the relative viability ([2]; first compound 2 µM)?
A: Its relative viability is 0.871.

Q: And the relative viability ([3]; first compound 0.02 µM)?
A: Its relative viability is 0.927.

Q: What about the relative viability ([3]; first compound 0.06325 µM) of the same cell line?
A: The relative viability was 1.09.

Q: What about the relative viability ([3]; first compound 0.2 µM) of the same cell line?
A: The relative viability was 0.918.

Q: And the relative viability ([3]; first compound 0.6325 µM)?
A: Its relative viability is 1.06.

Q: What about the relative viability ([3]; first compound 2 µM) of the same cell line?
A: The relative viability was 0.822.
